Experimental data as given in PubChem BioAssay AID328 (DTP/NCI, 2004).
“And” between values parts separate entries of the source, which are not always exact repeats. Identical values can stand only once. Toxic doses and inconclusive results are not listed. Rule for the calls: active = survival T/C of 150% or more; inactive = T/C below 125% in these data.

System: BDF1 mice, P388 leukemia ip, median survival T/C
Experiment: NCI In Vivo Anticancer Drug Screen. Data for tumor model P388 Leukemia (intraperitoneal) in B6D2F1 (BDF1) mice
Conditions: endpoint: median survival time, higher = longer survival
Outline: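 Mice carrying the transplantable tumour receive compound or vehicle. Survival is followed in each arm, and the treated measure is divided by the vehicle measure.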

[1] = dose: 25.0 mg/kg/injection, schedule: Q01DX009 (ip), vehicle: saline with Tween-80
[2] = dose: 50.0 mg/kg/injection, schedule: Q01DX009 (ip), vehicle: saline with Tween-80
[3] = dose: 100.0 mg/kg/injection, schedule: Q01DX009 (ip), vehicle: saline with Tween-80
[4] = dose: 12.5 mg/kg/injection, schedule: Q04DX003 (ip), vehicle: saline with Tween-80
[5] = dose: 25.0 mg/kg/injection, schedule: Q04DX003 (ip), vehicle: saline with Tween-80
[6] = dose: 50.0 mg/kg/injection, schedule: Q04DX003 (ip), vehicle: saline with Tween-80
[7] = dose: 200.0 mg/kg/injection, schedule: Q01DX009 (ip), vehicle: saline with Tween-80
[8] = dose: 12.5 mg/kg/injection, schedule: Q01DX009 (ip), vehicle: Klucel (hydroxypropylcellulose) (HPC)
[9] = dose: 25.0 mg/kg/injection, schedule: Q01DX009 (ip), vehicle: Klucel (hydroxypropylcellulose) (HPC)
[10] = dose: 50.0 mg/kg/injection, schedule: Q01DX009 (ip), vehicle: Klucel (hydroxypropylcellulose) (HPC)
[11] = dose: 100.0 mg/kg/injection, schedule: Q01DX009 (ip), vehicle: saline
[12] = dose: 100.0 mg/kg/injection, schedule: Q04DX003 (ip), vehicle: saline
[13] = dose: 200.0 mg/kg/injection, schedule: Q01DX009 (ip), vehicle: saline
[14] = dose: 200.0 mg/kg/injection, schedule: Q04DX003 (ip), vehicle: saline
[15] = dose: 400.0 mg/kg/injection, schedule: Q04DX003 (ip), vehicle: saline
[16] = dose: 50.0 mg/kg/injection, schedule: Q01DX009 (ip), vehicle: saline
[17] = dose: 100.0 mg/kg/injection, schedule: Q04DX003 (ip), vehicle: saline with Tween-80
[18] = dose: 200.0 mg/kg/injection, schedule: Q04DX003 (ip), vehicle: saline with Tween-80

Measured: T/C

CC(=O)OCC(=O)[C@@]1(O)CC[C@H]2[C@@H]3CCC4=CC(=O)C=C[C@]4(C)[C@H]3C(=O)C[C@@]21C
inactive: [1] 109 % of control | [2] 122 % of control | dose: 63.75 mg/kg/injection, schedule: Q01DX009 (ip), vehicle: Klucel (hydroxypropylcellulose) (HPC) 113 % of control | [3] 118 % of control | dose: 100.0 mg/kg/injection, schedule: Q04DX003 (ip), vehicle: Klucel (hydroxypropylcellulose) (HPC) 100 % of control | dose: 127.5 mg/kg/injection, schedule: Q01DX009 (ip), vehicle: Klucel (hydroxypropylcellulose) (HPC) 122 % of control | dose: 200.0 mg/kg/injection, schedule: Q04DX003 (ip), vehicle: Klucel (hydroxypropylcellulose) (HPC) 104 % of control | dose: 255.0 mg/kg/injection, schedule: Q01DX009 (ip), vehicle: Klucel (hydroxypropylcellulose) (HPC) 100 % of control | dose: 400.0 mg/kg/injection, schedule: Q04DX003 (ip), vehicle: Klucel (hydroxypropylcellulose) (HPC) 104 % of control

CCCCCCCCCCCCCCCCNC(C)c1ccccc1 (stereo unspecified)
inactive: [4] 101 % of control | [5] 106 % of control

CCN(CC)Cc1nc2nc(Cl)c(Cl)nc2[nH]1
inactive: dose: 5.0 mg/kg/injection, schedule: Q01DX009 (ip), vehicle: saline with Tween-80 112 % of control | dose: 10.0 mg/kg/injection, schedule: Q01DX009 (ip), vehicle: saline with Tween-80 114 % of control | [4] 114 % of control | dose: 20.0 mg/kg/injection, schedule: Q01DX009 (ip), vehicle: saline with Tween-80 98 % of control | [5] 100 % of control and 114 % of control | [6] 88 % of control and 100 % of control and 104 % of control

CC(C)Oc1ccc(C(=O)NS(=O)(=O)c2ccc(N)cc2)cc1
inactive: dose: 100.0 mg/kg/injection, schedule: Q01DX001 (ip), vehicle: saline 113 % of control | dose: 200.0 mg/kg/injection, schedule: Q01DX001 (ip), vehicle: saline 104 % of control | dose: 400.0 mg/kg/injection, schedule: Q01DX001 (ip), vehicle: saline 100 % of control

O=C(N/N=C\c1c(Cl)cccc1Cl)c1ccccc1
inactive: dose: 50.0 mg/kg/injection, schedule: Q04DX003 (ip), vehicle: acetone 113 % of control | dose: 100.0 mg/kg/injection, schedule: Q04DX003 (ip), vehicle: acetone 95 % of control | dose: 200.0 mg/kg/injection, schedule: Q04DX003 (ip), vehicle: acetone 90 % of control

O=S(=O)(CCl)OCCCl
inactive: [1] 123 % of control | [2] 107 % of control
active: [3] 214 % of control | [7] 177 % of control

Cc1onc(-c2c(Cl)cccc2Cl)c1C(=O)Nc1ccccc1CC1c2ccccc2CCN1C (stereo unspecified)
inactive: [8] 96 % of control | [9] 99 % of control | [10] 89 % of control and 102 % of control

COc1cc2c(c3c1c(=O)c1ccccc1n3C)C=CC(C)(C)O2
inactive: dose: 12.5 mg/kg/injection, schedule: Q01DX010 (ip), vehicle: saline 100 % of control | dose: 25.0 mg/kg/injection, schedule: Q01DX010 (ip), vehicle: saline 90 % of control | dose: 50.0 mg/kg/injection, schedule: Q01DX010 (ip), vehicle: saline 90 % of control | dose: 100.0 mg/kg/injection, schedule: Q01DX010 (ip), vehicle: saline 90 % of control

CCCN1c2c(nc(N)[nH]c2=O)NCC1CNc1ccc(C(=O)NC(CCC(=O)O)C(=O)O)cc1 (stereo unspecified)
inactive: [11] 108 % of control | [12] 112 % of control | [13] 100 % of control | [14] 100 % of control | dose: 400.0 mg/kg/injection, schedule: Q01DX009 (ip), vehicle: saline 110 % of control | [15] 91 % of control

CCCCN(CCCC)CCC(O)c1cc(-c2ccc(Cl)c(Cl)c2)nc2c(Cl)cc(Cl)cc12 (stereo unspecified)
inactive: [2] 99 % of control | [3] 110 % of control

CC(=O)O[C@@]1(C)[C@@H](C)C(=O)O[C@@H]2CCN3CC=C(COC(=O)[C@]1(C)O)[C@H]23
inactive: dose: 25.0 mg/kg/injection, schedule: Q01DX010 (ip), vehicle: carboxymethylcellulose (CMC) 110 % of control | dose: 50.0 mg/kg/injection, schedule: Q01DX010 (ip), vehicle: carboxymethylcellulose (CMC) 95 % of control | dose: 100.0 mg/kg/injection, schedule: Q01DX010 (ip), vehicle: carboxymethylcellulose (CMC) 100 % of control

O=c1[n-]cc(F)c(=O)[nH]1.O=c1[n-]cc(F)c(=O)[nH]1.[NH2-].[NH2-].[Pt+4]
inactive: [11] 100 % of control | [12] 120 % of control and 104 % of control | [13] 120 % of control | [14] 113 % of control | [15] 100 % of control

NC(=O)N/N=C(\CF)C(=O)O
inactive: dose: 6.0 mg/kg/injection, schedule: Q01DX009 (ip), vehicle: Klucel (hydroxypropylcellulose) (HPC) 105 % of control | dose: 12.0 mg/kg/injection, schedule: Q01DX009 (ip), vehicle: Klucel (hydroxypropylcellulose) (HPC) 105 % of control | dose: 24.0 mg/kg/injection, schedule: Q01DX009 (ip), vehicle: Klucel (hydroxypropylcellulose) (HPC) 115 % of control | dose: 48.0 mg/kg/injection, schedule: Q01DX009 (ip), vehicle: Klucel (hydroxypropylcellulose) (HPC) 105 % of control

C[C@]12CC[C@H](O)C=C1CC[C@@H]1[C@@H]2CC[C@]2(C)C(c3ccc(=O)oc3)CC[C@]12O (stereo partly specified)
inactive: dose: 6.25 mg/kg/injection, schedule: Q01DX009 (ip), vehicle: Klucel (hydroxypropylcellulose) (HPC) 96 % of control | [8] 86 % of control

CC(=O)Oc1cccnc1C(C#N)C#N
inactive: dose: 50.0 mg/kg/injection, schedule: Q01DX005 (ip), vehicle: saline with Tween-80 92 % of control

COC(=O)c1c(C(=O)OC)c1=[N+]=[N-]
inactive: [2] 101 % of control | [3] 96 % of control | [7] 99 % of control

COc1ccc(C(O)C2CCCN(C)S2(=O)=O)cc1 (stereo unspecified)
inactive: dose: 100.0 mg/kg/injection, schedule: Q04DX002 (ip), vehicle: saline with Tween-80 117 % of control | dose: 200.0 mg/kg/injection, schedule: Q04DX002 (ip), vehicle: saline with Tween-80 112 % of control | dose: 400.0 mg/kg/injection, schedule: Q04DX002 (ip), vehicle: saline with Tween-80 111 % of control

Cc1nc(N(C)C)c2cnn(-c3ccccc3)c2n1
inactive: [9] 105 % of control | [10] 105 % of control | dose: 100.0 mg/kg/injection, schedule: Q01DX009 (ip), vehicle: Klucel (hydroxypropylcellulose) (HPC) 105 % of control

O=C(O)C1OC(n2cc([N+](=O)[O-])c(=O)[nH]c2=O)C(O)C1O (stereo unspecified)
inactive: [1] 95 % of control | [2] 96 % of control | [3] 93 % of control

CC1C(=O)CC(=O)C1=O (stereo unspecified)
inactive: [16] 100 % of control | [11] 104 % of control | [13] 104 % of control

O=C(C=C(C(F)(F)F)C(F)(F)F)c1ccco1
inactive: dose: 6.25 mg/kg/injection, schedule: Q01DX009 (ip), vehicle: saline with Tween-80 120 % of control | dose: 12.5 mg/kg/injection, schedule: Q01DX009 (ip), vehicle: saline with Tween-80 120 % of control

CC(Br)C(=O)NC(CC(N)=O)C(=O)O (stereo unspecified)
inactive: [6] 100 % of control | [17] 90 % of control | [18] 100 % of control

C/C(=C1/c2ccccc2-c2n[nH]c(C)c21)S(=O)(=O)O
inactive: [17] 104 % of control | [18] 100 % of control | dose: 400.0 mg/kg/injection, schedule: Q04DX003 (ip), vehicle: saline with Tween-80 100 % of control

N#CCc1ccc2c(c1)[nH]c1ccccc12
inactive: dose: 50.0 mg/kg/injection, schedule: Q04DX003 (ip), vehicle: saline sonified 104 % of control | dose: 100.0 mg/kg/injection, schedule: Q04DX003 (ip), vehicle: saline sonified 109 % of control | dose: 200.0 mg/kg/injection, schedule: Q04DX003 (ip), vehicle: saline sonified 104 % of control

COc1cccc(Nc2sc(C(=O)c3cc4cc(Cl)ccc4o3)c(N)c2C#N)c1
inactive: [2] 109 % of control | [3] 100 % of control | [7] 115 % of control

CC1CCN(SSc2nc3ccccc3s2)CC1
inactive: [2] 110 % of control | [3] 110 % of control

CCCCC[C@H](CN(C)C)[C@H](O)/C=C/c1ccc(Cl)cc1
inactive: dose: 12.5 mg/kg/injection, schedule: Q01DX009 (ip), vehicle: saline 101 % of control | dose: 25.0 mg/kg/injection, schedule: Q01DX009 (ip), vehicle: saline 112 % of control | [16] 108 % of control
